Assay results taken from US20130030012A1, “COMPOUNDS” (Glaxo Group Limited, priority 2011, published 2013).
Read-outs that look alike come from different tables or passages of the source.

How the values were obtained:
[1] = biological target: T1, recombinant human Lp-PLA2 (Homo sapiens, UniProt Q13093); assay: Recombinant human Lp-PLA2 assay (rhLp-PLA2, PED6 assay); type: biochemical; conditions: upper limit for pIC50 in this assay is 9.3
T1 sequence (Q13093 22-441): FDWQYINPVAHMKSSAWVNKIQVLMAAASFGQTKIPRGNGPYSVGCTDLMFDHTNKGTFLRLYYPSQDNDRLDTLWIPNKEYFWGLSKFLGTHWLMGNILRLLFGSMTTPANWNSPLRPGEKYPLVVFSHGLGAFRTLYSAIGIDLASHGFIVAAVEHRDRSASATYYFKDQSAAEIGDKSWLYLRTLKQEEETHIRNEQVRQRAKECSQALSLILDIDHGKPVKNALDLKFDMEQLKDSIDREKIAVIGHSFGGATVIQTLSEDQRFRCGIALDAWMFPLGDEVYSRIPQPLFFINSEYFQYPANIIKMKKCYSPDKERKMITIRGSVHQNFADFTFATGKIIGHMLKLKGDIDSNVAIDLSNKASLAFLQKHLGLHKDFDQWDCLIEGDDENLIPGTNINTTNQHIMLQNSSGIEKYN
Text: (1) Recombinant Human Lp-PLA2 Assay (rhLp-PLA2) (Also Referred to as “PED6” Assay)
N-((6-(2,4-dinitrophenyl)amino)-hexanoyl)-2-(4,4-difluoro-5,7-dimethyl-4-bora-3a,4a-diaza-s-indacene-3-pentanoyl)-1-hexadecanoyl-sn-glycero-3-phosphoethanolamine, triethylammonium salt (PED6) is a commercially available fluorescently-labeled phospholipid, which is commercially available from Invitrogene and Molecular Probes. There is a quenching […] and a Bodipy fluorescein (FL) group in the sn2 position. Upon cleavage with Lp-PLA2, the Bodipy FL group is liberated and then may result in an increase in fluorescence. Inhibitors of Lp-PLA2 therefore prevent this cleavage and no fluorescent increase is observed.
The PED6 assay was run as an unquenched 10 μL assay. The source plate containing the compounds to be tested was prepared by making 1:3 (by volume) serial dilution of the compounds within DMSO on 384-well microplate. Then, 0.01 μL of the compounds on compound source plate were transferred into 384 well Greiner 784076 (black) plates using ECHO liquid dispenser. 5 μL of recombinant human Lp-PLA2 enzyme (4 nM (or 110 pM) rhLp-PLA2 in assay buffer of 50 mM HEPES, pH 7.4, 150 mM NaCl, 1 mM CHAPS) was added to each well of the plate. Plates were centrifuged for 10 sec at 500 rpm. After 30 minutes preincubation, 5 μL of substrate ([…] (or 5 μM) PED6 [from 5 mM DMSO stock] in assay buffer of 50 mM HEPES, pH 7.4, 150 mM NaCl, 1 mM CHAPS) was added to 384 well Greiner 784076 (black) plates. Plates were centrifuged for 10 sec at 500 rpm. The plate was covered to protect it from light and incubated for 20 min at room temperature. The plates were read for fluorescence intensity at ex: 480/em: 540 using ViewLux microplate imager for Envision spectrofluoroimeters pIC50 data, curve and QC analysis was conducted by using XL fit module in Excel.
The compounds described below were tested generally according to the PED6 assay described above.

Lp-PLA2 in human plasma = biological target: T2, Lp-PLA2 in human plasma (Homo sapiens, UniProt Q13093); assay: Lp-PLA2 human plasma assay (Thio-PAF assay); type: biochemical; conditions: pooled human plasma; read-out: pIC50 values in the thio-PAF assay (converted)
T2 construct: from tissue; host or cells: pooled human plasma
T2 sequence (Q13093 22-441): T1 sequence (Q13093 22-441)
Text: The human plasma assay utilizes a thioester analog of PAF (phosphatidylcholine), where hydrolysis yields to the formation of a phospholipid containing a free thiol group. The amount of thiol is quantitated continuously by reacting with CPM (7-diethylamino-3-(4′-maleimidylphenyl)-4-methylcoumarin), a maleimide which increases in fluoresence after Michael addition of thiols. This assay may detect the activity of Lp-PLA2 in human plasma, as determined by specific inhibition by Lp-PLA2 inhibitors.
The thio-PAF assay was run as a quenched 15 μL assay. Compounds source plate was prepared by making 1:3 (by volume) serial dilution of the compounds into pure DMSO on 384-well microplate. 0.01 μL of compounds on compound source plate were transferred to 384 well Greiner 784076 (black) low-volume plates by ECHO liquid dispenser. 8 μL pooled human plasma, which was previously aliquoted and frozen, was added. Plates were centrifuged for 10 sec at 500 rpm. After 30 minutes preincubation, 2 μL of substrate solution comprising 2.5 mM 2-thio-PAF [from ethanol stock], […] CPM [from a DMSO stock] and 3.2 mM NEM (N-ethylmaleimide) [made fresh daily in DMSO] in assay buffer of 50 mM HEPES, pH 7.4, 150 mM NaCl, 1 mM CHAPS was added to 384 well Greiner 784076 (black) low-volume plates by BRAVO liquid handling station. After 2 mins, reaction was quenched with 5 μL of 5% aqueous trifluoroacetic acid (TFA). Plates were covered to protect from light and incubated for 40 min at room temperature. Plates were read at ex: 380/em: 485 using—Envision microplate reader. pIC50 data, curve and QC analysis was conducted by using XLFit module in Excel.

[2] = read-out: pIC50 values in the PED6 assay (converted)
[3] = Table 1, read-out: rhLp-PLA2 (PED6 assay) (pIC50) (converted)

Compound `CN1CCCn2c1cc(OCc1ccc(Oc3ccc(F)c(Cl)c3)c(F)c1)nc2=O` [Example 15, 8-((4-(3-chloro-4-fluorophenoxy)-3-fluorobenzyl)oxy)-1-methyl-3,4-dihydro-1H-pyrimido[1,6-a]pyrimidin-6(2H)-one] has an IC50 [1, 2] of no more than 10 nM and an IC50 (Lp-PLA2 in human plasma) of no more than 100 nM.
In the case of `CN1CCCn2c1cc(OCc1ccc(Oc3cccc(Cl)c3)c(F)c1)nc2=O` [Example 16, 8-((4-(3-chlorophenoxy)-3-fluorobenzyl)oxy)-1-methyl-3,4-dihydro-1H-pyrimido[1,6-a]pyrimidin-6(2H)-one], the IC50 [1, 2] was no more than 10 nM and the IC50 (Lp-PLA2 in human plasma) was no more than 100 nM.
With `CN1CCCn2c1cc(OCc1ccc(Oc3ccc(F)c(Cl)c3)cc1)nc2=O` [Example 17, 8-((4-(3-chloro-4-fluorophenoxy)benzyl)oxy)-1-methyl-3,4-dihydro-1H-pyrimido[1,6-a]pyrimidin-6(2H)-one] the IC50 [1, 2] was no more than 10 nM and the IC50 (Lp-PLA2 in human plasma) was no more than 1000 nM.
`CN1CCCn2c1cc(OCc1cc(F)c(F)c(F)c1)nc2=O` [Example 21, 1-methyl-8-((3,4,5-trifluorobenzyl)oxy)-3,4-dihydro-1H-pyrimido[1,6-a]pyrimidin-6(2H)-one] gave an IC50 [1, 3] of 2 nM, an IC50 [1, 2] of no more than 10 nM and an IC50 (Lp-PLA2 in human plasma) of no more than 100 nM.
`CN1CCCn2c1cc(OCc1ccc(Oc3cccc(F)c3)c(F)c1)nc2=O` [Example 25, 8-((3-fluoro-4-(3-fluorophenoxy)benzyl)oxy)-1-methyl-3,4-dihydro-1H-pyrimido[1,6-a]pyrimidin-6(2H)-one] showed an IC50 [1, 2] of no more than 10 nM and an IC50 (Lp-PLA2 in human plasma) of no more than 1000 nM.
`CN1CCCn2c1cc(OCc1ccc(Oc3cccc(C(F)(F)F)c3)c(F)c1)nc2=O` [Example 28, 8-((3-fluoro-4-(3-(trifluoromethyl)phenoxy)benzyl)oxy)-1-methyl-3,4-dihydro-1H-pyrimido[1,6-a]pyrimidin-6(2H)-one] was tested, and the IC50 [1, 3] was 2.51 nM, the IC50 [1, 2] was no more than 10 nM and the IC50 (Lp-PLA2 in human plasma) was no more than 100 nM.
`CN1CCCn2c1cc(OCc1ccc(Oc3ccc(C(F)(F)F)cc3)c(C#N)c1)nc2=O` [Example 29, 5-(((1-methyl-6-oxo-2,3,4,6-tetrahydro-1H-pyrimido[1,6-a]pyrimidin-8-yl)oxy)methyl)-2-(4-(trifluoromethyl)phenoxy)benzonitrile] was tested, and the IC50 [1, 2] was no more than 10 nM and the IC50 (Lp-PLA2 in human plasma) was no more than 100 nM.
For `CN1CCCn2c1cc(OCc1ccc(Oc3ccc(F)cc3)c(C#N)c1)nc2=O` [Example 30, 2-(4-fluorophenoxy)-5-(((1-methyl-6-oxo-2,3,4,6-tetrahydro-1H-pyrimido[1,6-a]pyrimidin-8-yl)oxy)methyl)benzonitrile], the IC50 [1, 2] was no more than 10 nM and the IC50 (Lp-PLA2 in human plasma) was no more than 100 nM.
In the case of `CN1CCCn2c1cc(OCc1ccc(Oc3cccc(C(F)(F)F)n3)c(F)c1)nc2=O` [Example 32, 8-((3-fluoro-4-((6-(trifluoromethyl)pyridin-2-yl)oxy)benzyl)oxy)-1-methyl-3,4-dihydro-1H-pyrimido[1,6-a]pyrimidin-6(2H)-one], the IC50 [1, 2] was no more than 10 nM and the IC50 (Lp-PLA2 in human plasma) was no more than 1000 nM.
Compound `CN1CCCn2c1cc(OCc1ccc(Oc3ccc(F)c(F)c3)c(C#N)c1)nc2=O` [Example 34, 2-(3,4-difluorophenoxy)-5-(((1-methyl-6-oxo-2,3,4,6-tetrahydro-1H-pyrimido[1,6-a]pyrimidin-8-yl)oxy)methyl)benzonitrile] has an IC50 [1, 2] of no more than 10 nM and an IC50 (Lp-PLA2 in human plasma) of no more than 100 nM.
In the case of `CC(C)N1CCCn2c1cc(OCc1ccc(Oc3ccc(C(F)(F)F)nc3)c(F)c1)nc2=O` [Example 38, 8-((3-fluoro-4-((6-(trifluoromethyl)pyridin-3-yl)oxy)benzyl)oxy)-1-isopropyl-3,4-dihydro-1H-pyrimido[1,6-a]pyrimidin-6(2H)-one], the IC50 [1, 2] was no more than 10 nM and the IC50 (Lp-PLA2 in human plasma) was no more than 100 nM.
`CC(C)N1CCCn2c1cc(OCc1ccc(F)c(F)c1)nc2=O` [Example 40, 8-((3,4-difluorobenzyl)oxy)-1-isopropyl-3,4-dihydro-1H-pyrimido[1,6-a]pyrimidin-6(2H)-one] showed an IC50 [1, 3] of 10 nM, an IC50 [1, 2] of no more than 10 nM and an IC50 (Lp-PLA2 in human plasma) of no more than 100 nM.
Compound `CC(C)N1CCCn2c1cc(OCc1cc(F)c(F)c(F)c1)nc2=O` [Example 42, isopropyl-8-((3,4,5-trifluorobenzyl)oxy)-3,4-dihydro-1H-pyrimido[1,6-a]pyrimidin-6(2H)-one] has an IC50 [1, 3] of 5.01 nM, an IC50 [1, 2] of no more than 10 nM and an IC50 (Lp-PLA2 in human plasma) of no more than 100 nM.
